Experimental data taken from the NIST ThermoML archive (doi:10.1021/je9005097).
Numbers after ± are expanded uncertainties.

Tests used:
[1] = Crystal; DTA
[2] = Molar enthalpy of transition or fusion; details: Crystal; DSC

Normal melting temperature [1]: 305.5 ± 1 °C | Molar enthalpy of transition or fusion [2]: 9.13 ± 0.263 kcal/mol
SMILES: Oc1cc(O)c2cc1Cc1cc(c(O)cc1O)Cc1cc(c(O)cc1O)Cc1cc(c(O)cc1O)C2
